Reference: publication PMC9317316, “Synthesis and Evaluation of Some New 4H-Pyran Derivatives as Antioxidant, Antibacterial and Anti-HCT-116 Cells of CRC, with Molecular Docking, Antiproliferative, Apoptotic and ADME Investigations” (Pharmaceuticals, 2022)
“And” between values parts separate entries of the source, which are not always exact repeats. Identical values can stand only once. Like-named read-outs stand apart in the source and are kept apart here.

Columns and labels:
[1] = Reducing power assay (FRAC, Fe3+ to Fe2+); settings: 0-1 mg/mL, absorbance 700 nm
Method in brief: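 Oyaizu method: compound (0–1 mg/mL) incubated with 0.2 M phosphate buffer pH 6.6 and 1% K3Fe(CN)6 at 50 °C for 20 min, then TCA, centrifugation, and 0.1% FeCl3 added to supernatant. Absorbance read at 700 nm; EC50 expressed in mM, BHT as reference.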

S. aureus (ATCC 25923) = experiment: Antibacterial agar diffusion method (inhibition zone); type: cell-based
Method in brief: (§1)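 Strains were tested by agar diffusion, scoring the inhibition zone on the top agar surface against ampicillin (10 µg/well). Viability was assessed by CFU after 60 min compound exposure at 37 °C in BHI (2 ×10^7 CFU/mL), dilution and 24 h plating; IC50 averaged over three measurements.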

[2] = tested on: P. aeruginosa (ATCC 27853); experiment: as above; type: cell-based
Method in brief: as §1

[3] = tested on: S. epidermidis (ATCC 14990); experiment: as above; type: cell-based
Method in brief: as §1

[4] = tested on: K. pneumonia (ATCC 700603); experiment: as above; type: cell-based
Method in brief: as §1

B. cereus (ATCC 14579) = experiment: as above; type: cell-based
Method in brief: as §1

B. subtilis (ATCC 6633) = experiment: as above; type: cell-based
Method in brief: as §1

E. coli (ATCC 25966) = experiment: as above; type: cell-based; settings: E. coil (ATCC 25966)
Method in brief: as §1

E. faecalis (ATCC 29122) = experiment: as above; type: cell-based
Method in brief: as §1

[5] = tested on: CDK2 protein in HCT-116 cells; experiment: Quantitative determination of CDK2 concentration in HCT-116 cell lysates (Human CDK2 ELISA Kit); type: cell-based; settings: for downregulation of CDK2 protein expression, fold: as compared to the negative control; for concentration of CDK2 in lysate of treated HCT-116 cells: negative control 7.466 ng/mL
Method: First, the commercial Human CDK2 ELISA Kit was used to estimate concentrations of the protein in the lysate of HCT-116 cells treated with 4d and 4k. The results were compared with the positive (cells treated with the reference CDK inhibitor, BMS-265246) and negative control experiments.
The in vitro quantitative measurement of concentration of CDK2 in lysates of HCT-116 cells was carried out using a commercial Human CDK2 ELISA Kit (cat. no.: LS-F22176; LifeSpan Biosciences Inc., Seattle, WA, USA) in the presence or absence of the studied compounds (4d and 4k), following the manufacturer’s instructions. Briefly, standards, blanks or samples were first incubated in the corresponding wells for 90 min at 37 °C. Then, biotinylated detection antibody was added to each well and the plate was incubated for 1 h at 37 °C followed by the addition of an Avidin–Horseradish Peroxidase (HRP) conjugate which binds to the biotin. After incubation of the mixture for 30 min at 37 °C, unbound Avidin–HRP conjugate was washed away and a TMB substrate was then added which reacts with the HRP enzyme, resulting in color development. After that, the reaction was stopped using a sulfuric acid stop solution to terminate the color-development reaction and the optical density of each well was measured using a microplate reader at 450 nm. BMS-265246 was used as the standard drug for inhibition of CDK2. All measurements were performed in triplicate.

HCT-116 cells = experiment: Cell viability (cytotoxicity, LDH release) assay; type: cell-based; settings: Homo sapiens, 24 h; for viability at 100 µg/mL: read-out: percent of viable cells
Method in brief: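 Human colorectal HCT-116 cells exposed to compounds at 10, 25, 50 and 100 µg/mL in DMEM with 10% FBS for 24 h at 37 °C. LDH released into the supernatant measured at 600 nm; viability given as % of untreated control OD (mean ± SD, n = 3), 0.1% Triton X-100 as positive control.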

[6] = read-out: Mean IC50 (µM) of cytotoxicity
[7] = read-out: Mean IC50 (µg/mL) of cytotoxicity

| SMILES | EC50 [1] [µM] | IZ (mm) (S. aureus (ATCC 25923)) | IZ (mm) [2] [mm] | IZ (mm) [3] [mm] | IZ (mm) [4] [mm] | IZ (mm) (B. cereus (ATCC 14579)) | IZ (mm) (B. subtilis (ATCC 6633)) | IZ (mm) (E. coli (ATCC 25966)) | IZ (mm) (E. faecalis (ATCC 29122)) | downregulation of CDK2 protein expression, fold [5] [fold] | concentration of CDK2 in lysate of treated HCT-116 cells [5] [ng/mL] | viability at 100 µg/mL (HCT-116 cells) [%] | IC50 (HCT-116 cells; [6]) [µM] | IC50 (HCT-116 cells; [7]) [µg/mL] |
| --- | --- | --- | --- | --- | --- | --- | --- | --- | --- | --- | --- | --- | --- | --- |
| COc1cc(C2C(C#N)=C(N)OC(C)=C2C(=O)OCc2ccccc2)cc(OC)c1OC (stereo not shown) [4d, 6-Amino-5-cyano-2-methyl-4-(3,4,5-trimethoxy-phenyl)-4H-pyran-3-carboxylic acid benzyl ester] | 149 ± 16 | 9.00 mm and 9.00 ± 1.41 mm | 6.5 ± 0.7 | 8.50 ± 0.71 | 4.5 ± 0.7 | 9.50 ± 0.71 | 12.00 ± 1.41 | 3.5 ± 0.71 | 14.50 mm and 14.50 ± 0.71 mm | 1.9 | 4.634 | 11 to 32.5 | 75.1 ± 5.09 | 32.8 ± 2.22 |
| CC1=C(C(=O)OCc2ccccc2)C(c2ccc(C#N)cc2)C(C#N)=C(N)O1 (stereo not shown) [4k, 6-Amino-5-cyano-4-(4-cyano-phenyl)-2-methyl-4H-pyran-3-carboxylic acid benzyl ester] | 1560 ± 102 | 5.75 ± 0.35 mm | 3.5 ± 0.7 | 4.50 ± 0.71 | 2.5 ± 0.7 | 7.00 ± 1.41 | 4.50 ± 0.71 | 4.5 ± 0.71 | 5.50 ± 0.71 mm | 1.6 | 3.932 | 11 to 32.5 | 85.9 ± 7.61 | 31.9 ± 2.83 |
